Reference: US10738028B2, “Spiro three-membered ring, spiro five-membered ring peptide deformylase inhibitor and use thereof in antibacteria and anti-tumor” (priority 2016, dated 2020)

Columns and labels:
Assay type in all cases: cell-based
[1] = tested on: HCT-116 colorectal cancer cell line; test: CCK-8 proliferation inhibition; conditions: Homo sapiens, HCT-116, 72 h, concentration of 30 μM; 72 hours; CCK-8; read-out: HCT116 inhibition rate/%
Summary of the method: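 Proliferation over 72 hours of compound treatment was measured with CCK-8 against a 1‰ DMSO control.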

[2] = tested on: methicillin-sensitive Staphylococcus epidermidis (MSSE); test: MIC, two-fold agar dilution (CLSI), clinical isolates; conditions: for Anti-bacterial activity (MIC), strain MSSE 15-3: clinical isolate MSSE 15-3; for Anti-bacterial activity (MIC), strain MSSE 15-4: clinical isolate MSSE 15-4; for Anti-bacterial activity (MIC), strain MSSE 15-5: clinical isolate MSSE 15-5; for Anti-bacterial activity (MIC), strain MSSE 15-6: clinical isolate MSSE 15-6
Summary of the method: (§1)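 Samples are serially diluted two-fold in agar following CLSI guidance. Plates are then inoculated with the tested strains. The lowest inhibiting concentration is recorded as MIC.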

[3] = tested on: Enterococcus faecalis (EFA); test: as above; conditions: for Anti-bacterial activity (MIC), strain EFA 15-1: clinical isolate EFA 15-1; for Anti-bacterial activity (MIC), strain EFA 15-2: clinical isolate EFA 15-2; for Anti-bacterial activity (MIC), strain EFA 15-3: clinical isolate EFA 15-3; for Anti-bacterial activity (MIC), strain EFA 15-4: clinical isolate EFA 15-4; for Anti-bacterial activity (MIC), strain EFA 15-5: clinical isolate EFA 15-5; for Anti-bacterial activity (MIC), strain EFA 15-6: clinical isolate EFA 15-6; for Anti-bacterial activity (MIC), strain EFA 15-9: clinical isolate EFA 15-9
Summary of the method: as §1

[4] = tested on: methicillin-resistant Staphylococcus epidermidis (MRSE); test: as above; conditions: for Anti-bacterial activity (MIC), strain MRSE 15-1: clinical isolate MRSE 15-1; for Anti-bacterial activity (MIC), strain MRSE 15-2: clinical isolate MRSE 15-2; for Anti-bacterial activity (MIC), strain MRSE 15-3: clinical isolate MRSE 15-3; for Anti-bacterial activity (MIC), strain MRSE 15-7: clinical isolate MRSE 15-7
Summary of the method: as §1

[5] = tested on: Moraxella catarrhalis (BCA); test: as above; conditions: for Anti-bacterial activity (MIC), strain BCA 14-1: clinical isolate BCA 14-1; for Anti-bacterial activity (MIC), strain BCA 14-4: clinical isolate BCA 14-4; for Anti-bacterial activity (MIC), strain BCA 14-5: clinical isolate BCA 14-5; for Anti-bacterial activity (MIC), strain BCA 14-6: clinical isolate BCA 14-6; for Anti-bacterial activity (MIC), strain BCA 14-7: clinical isolate BCA 14-7; for Anti-bacterial activity (MIC), strain BCA 14-8: clinical isolate BCA 14-8; for Anti-bacterial activity (MIC), strain BCA 14-10: clinical isolate BCA 14-10
Summary of the method: as §1

[6] = tested on: Enterococcus faecium (EFM); test: as above; conditions: for Anti-bacterial activity (MIC), strain EFM 15-1: clinical isolate EFM 15-1; for Anti-bacterial activity (MIC), strain EFM 15-2: clinical isolate EFM 15-2; for Anti-bacterial activity (MIC), strain EFM 15-3: clinical isolate EFM 15-3; for Anti-bacterial activity (MIC), strain EFM 15-4: clinical isolate EFM 15-4; for Anti-bacterial activity (MIC), strain EFM 15-5: clinical isolate EFM 15-5; for Anti-bacterial activity (MIC), strain EFM 15-6: clinical isolate EFM 15-6
Summary of the method: as §1

[7] = tested on: methicillin-resistant Staphylococcus aureus (MRSA); test: as above; conditions: for Anti-bacterial activity (MIC), strain MRSA 15-1: clinical isolate MRSA 15-1; for Anti-bacterial activity (MIC), strain MRSA 15-2: clinical isolate MRSA 15-2; for Anti-bacterial activity (MIC), strain MRSA 15-3: clinical isolate MRSA 15-3; for Anti-bacterial activity (MIC), strain MRSA 15-4: clinical isolate MRSA 15-4
Summary of the method: as §1

[8] = tested on: methicillin-sensitive Staphylococcus aureus (MSSA); test: as above; conditions: for Anti-bacterial activity (MIC), strain MSSA 15-3: clinical isolate MSSA 15-3; for Anti-bacterial activity (MIC), strain MSSA 15-4: clinical isolate MSSA 15-4; for Anti-bacterial activity (MIC), strain MSSA 15-5: clinical isolate MSSA 15-5; for Anti-bacterial activity (MIC), strain MSSA 15-6: clinical isolate MSSA 15-6
Summary of the method: as §1

[9] = tested on: Escherichia coli (including ESBLs, non-ESBLs); test: as above; conditions: for Anti-bacterial activity (MIC), strain ECO+ 15-1: clinical isolate ECO+ 15-1; for Anti-bacterial activity (MIC), strain ECO+ 15-2: clinical isolate ECO+ 15-2; for Anti-bacterial activity (MIC), strain ECO+ 15-3: clinical isolate ECO+ 15-3; for Anti-bacterial activity (MIC), strain ECO+ 15-4: clinical isolate ECO+ 15-4; for Anti-bacterial activity (MIC), strain ECO− 15-1: clinical isolate ECO− 15-1; for Anti-bacterial activity (MIC), strain ECO− 15-2: clinical isolate ECO− 15-2; for Anti-bacterial activity (MIC), strain ECO− 15-3: clinical isolate ECO− 15-3; for Anti-bacterial activity (MIC), strain ECO− 15-4: clinical isolate ECO− 15-4
Summary of the method: as §1

[10] = tested on: Streptococcus pneoumoniae (SPN); test: as above; conditions: for Anti-bacterial activity (MIC), strain SPN 16-2: clinical isolate SPN 16-2; for Anti-bacterial activity (MIC), strain SPN 16-4: clinical isolate SPN 16-4
Summary of the method: as §1

CCCC[C@H](CC(=O)NO)C(=O)N1CC2(CC2)C[C@H]1C(=O)Nc1cc(C)on1 [Example 56, (S)-5-((R)-2-(2-(hydroxyamino)-2-oxoethyl)hexanoyl)-N-(5-methylisoxazol-3-yl)-5-spiro[2.4]heptane-6-carboxamide]
inhibition at 30 µM [1]: 10%
Anti-bacterial activity (MIC), strain MSSE 15-3 [2]: 0.25 µg/mL
Anti-bacterial activity (MIC), strain MSSE 15-4 [2]: 0.06 µg/mL
Anti-bacterial activity (MIC), strain MSSE 15-5 [2]: 0.06 µg/mL
Anti-bacterial activity (MIC), strain MSSE 15-6 [2]: 0.06 µg/mL
Anti-bacterial activity (MIC), strain EFA 15-1 [3]: 16 µg/mL
Anti-bacterial activity (MIC), strain EFA 15-2 [3]: 16 µg/mL
Anti-bacterial activity (MIC), strain EFA 15-3 [3]: 16 µg/mL
Anti-bacterial activity (MIC), strain EFA 15-4 [3]: 16 µg/mL
Anti-bacterial activity (MIC), strain EFA 15-5 [3]: 16 µg/mL
Anti-bacterial activity (MIC), strain EFA 15-6 [3]: 16 µg/mL
Anti-bacterial activity (MIC), strain EFA 15-9 [3]: 16 µg/mL
Anti-bacterial activity (MIC), strain MRSE 15-1 [4]: 0.125 µg/mL
Anti-bacterial activity (MIC), strain MRSE 15-2 [4]: 2 µg/mL
Anti-bacterial activity (MIC), strain MRSE 15-3 [4]: 0.25 µg/mL
Anti-bacterial activity (MIC), strain MRSE 15-7 [4]: 0.5 µg/mL
Anti-bacterial activity (MIC), strain BCA 14-1 [5]: 4 µg/mL
Anti-bacterial activity (MIC), strain BCA 14-4 [5]: 4 µg/mL
Anti-bacterial activity (MIC), strain BCA 14-5 [5]: 1 µg/mL
Anti-bacterial activity (MIC), strain BCA 14-6 [5]: 8 µg/mL
Anti-bacterial activity (MIC), strain BCA 14-7 [5]: 2 µg/mL
Anti-bacterial activity (MIC), strain BCA 14-8 [5]: 2 µg/mL
Anti-bacterial activity (MIC), strain BCA 14-10 [5]: 2 µg/mL
Anti-bacterial activity (MIC), strain EFM 15-1 [6]: 1 µg/mL
Anti-bacterial activity (MIC), strain EFM 15-2 [6]: 4 µg/mL
Anti-bacterial activity (MIC), strain EFM 15-3 [6]: 1 µg/mL
Anti-bacterial activity (MIC), strain EFM 15-4 [6]: 4 µg/mL
Anti-bacterial activity (MIC), strain EFM 15-5 [6]: 1 µg/mL
Anti-bacterial activity (MIC), strain EFM 15-6 [6]: 4 µg/mL
Anti-bacterial activity (MIC), strain MRSA 15-1 [7]: 0.25 µg/mL
Anti-bacterial activity (MIC), strain MRSA 15-2 [7]: 2 µg/mL
Anti-bacterial activity (MIC), strain MRSA 15-3 [7]: 0.5 µg/mL
Anti-bacterial activity (MIC), strain MRSA 15-4 [7]: 2 µg/mL
Anti-bacterial activity (MIC), strain MSSA 15-3 [8]: 0.25 µg/mL
Anti-bacterial activity (MIC), strain MSSA 15-4 [8]: 0.25 µg/mL
Anti-bacterial activity (MIC), strain MSSA 15-5 [8]: 0.125 µg/mL
Anti-bacterial activity (MIC), strain MSSA 15-6 [8]: 0.25 µg/mL
Anti-bacterial activity (MIC), strain ECO+ 15-1 [9]: > 16 µg/mL
Anti-bacterial activity (MIC), strain ECO+ 15-2 [9]: > 16 µg/mL
Anti-bacterial activity (MIC), strain ECO+ 15-3 [9]: > 16 µg/mL
Anti-bacterial activity (MIC), strain ECO+ 15-4 [9]: > 16 µg/mL
Anti-bacterial activity (MIC), strain ECO− 15-1 [9]: > 16 µg/mL
Anti-bacterial activity (MIC), strain ECO− 15-2 [9]: > 16 µg/mL
Anti-bacterial activity (MIC), strain ECO− 15-3 [9]: > 16 µg/mL
Anti-bacterial activity (MIC), strain ECO− 15-4 [9]: > 16 µg/mL
Anti-bacterial activity (MIC), strain SPN 16-2 [10]: 8 µg/mL
Anti-bacterial activity (MIC), strain SPN 16-4 [10]: 1 µg/mL

CCCC[C@H](CC(=O)NO)C(=O)N1CC2(CC2)C[C@H]1c1nc2ccccc2[nH]1 [Example 58, (R)-3-((S)-6-(1H-benzimidazol-2-yl)-5-azaspiro[2.4]heptane-5-formyl)-N-hydroxyheptanamide]
inhibition at 30 µM [1]: 24%
Anti-bacterial activity (MIC), strain MSSE 15-3 [2]: > 32 µg/mL
Anti-bacterial activity (MIC), strain MSSE 15-4 [2]: > 32 µg/mL
Anti-bacterial activity (MIC), strain MSSE 15-5 [2]: > 32 µg/mL
Anti-bacterial activity (MIC), strain MSSE 15-6 [2]: > 32 µg/mL
Anti-bacterial activity (MIC), strain EFA 15-1 [3]: > 32 µg/mL
Anti-bacterial activity (MIC), strain EFA 15-2 [3]: > 32 µg/mL
Anti-bacterial activity (MIC), strain EFA 15-3 [3]: > 32 µg/mL
Anti-bacterial activity (MIC), strain EFA 15-4 [3]: > 32 µg/mL
Anti-bacterial activity (MIC), strain EFA 15-5 [3]: > 32 µg/mL
Anti-bacterial activity (MIC), strain EFA 15-6 [3]: > 32 µg/mL
Anti-bacterial activity (MIC), strain EFA 15-9 [3]: > 32 µg/mL
Anti-bacterial activity (MIC), strain MRSE 15-1 [4]: > 32 µg/mL
Anti-bacterial activity (MIC), strain MRSE 15-2 [4]: > 32 µg/mL
Anti-bacterial activity (MIC), strain MRSE 15-3 [4]: > 32 µg/mL
Anti-bacterial activity (MIC), strain MRSE 15-7 [4]: > 32 µg/mL
Anti-bacterial activity (MIC), strain BCA 14-1 [5]: > 32 µg/mL
Anti-bacterial activity (MIC), strain BCA 14-4 [5]: > 32 µg/mL
Anti-bacterial activity (MIC), strain BCA 14-5 [5]: 8 µg/mL
Anti-bacterial activity (MIC), strain BCA 14-6 [5]: > 32 µg/mL
Anti-bacterial activity (MIC), strain BCA 14-7 [5]: > 32 µg/mL
Anti-bacterial activity (MIC), strain BCA 14-8 [5]: > 32 µg/mL
Anti-bacterial activity (MIC), strain BCA 14-10 [5]: > 32 µg/mL
Anti-bacterial activity (MIC), strain EFM 15-1 [6]: > 32 µg/mL
Anti-bacterial activity (MIC), strain EFM 15-2 [6]: > 32 µg/mL
Anti-bacterial activity (MIC), strain EFM 15-3 [6]: > 32 µg/mL
Anti-bacterial activity (MIC), strain EFM 15-4 [6]: 8 µg/mL
Anti-bacterial activity (MIC), strain EFM 15-5 [6]: 8 µg/mL
Anti-bacterial activity (MIC), strain EFM 15-6 [6]: 8 µg/mL
Anti-bacterial activity (MIC), strain MRSA 15-1 [7]: > 32 µg/mL
Anti-bacterial activity (MIC), strain MRSA 15-2 [7]: > 32 µg/mL
Anti-bacterial activity (MIC), strain MRSA 15-3 [7]: > 32 µg/mL
Anti-bacterial activity (MIC), strain MRSA 15-4 [7]: > 32 µg/mL
Anti-bacterial activity (MIC), strain MSSA 15-3 [8]: > 32 µg/mL
Anti-bacterial activity (MIC), strain MSSA 15-4 [8]: > 32 µg/mL
Anti-bacterial activity (MIC), strain MSSA 15-5 [8]: > 32 µg/mL
Anti-bacterial activity (MIC), strain MSSA 15-6 [8]: > 32 µg/mL
Anti-bacterial activity (MIC), strain ECO+ 15-1 [9]: > 32 µg/mL
Anti-bacterial activity (MIC), strain ECO+ 15-2 [9]: > 32 µg/mL
Anti-bacterial activity (MIC), strain ECO+ 15-3 [9]: > 32 µg/mL
Anti-bacterial activity (MIC), strain ECO+ 15-4 [9]: > 32 µg/mL
Anti-bacterial activity (MIC), strain ECO− 15-1 [9]: > 32 µg/mL
Anti-bacterial activity (MIC), strain ECO− 15-2 [9]: > 32 µg/mL
Anti-bacterial activity (MIC), strain ECO− 15-3 [9]: > 32 µg/mL
Anti-bacterial activity (MIC), strain ECO− 15-4 [9]: > 32 µg/mL
Anti-bacterial activity (MIC), strain SPN 16-2 [10]: 8 µg/mL
Anti-bacterial activity (MIC), strain SPN 16-4 [10]: > 32 µg/mL
